Assays:
Type in all cases: in vivo
[1] = system: Spodoptera Eridania, 3rd Instar Larvae, Southern Armyworm (SAW); assay: Southern armyworm (SAW) leaf-dip test, observations at 5 days; details: Southern Army Worm, rating scale; for pest or weed control at 1000 ppm: Spodoptera eridania, foliar, 120 h, read-out: SAW 2^ND-FOLIAR 1000 (ppm)
Procedure: (§1) Test solutions are prepared by dissolving the test compound in a 35% acetone in water mixture to give a concentration of 10,000 ppm. Subsequent dilutions are made with water as needed.
Spodoptera Eridania, 3rd Instar Larvae, Southern Armyworm (SAW)
A Sieva lima bean leaf expanded to 7-8 cm in length is dipped in the test solution with agitation for 3 seconds and allowed to dry in a hood. The leaf is then placed in a 100×10 mm petri dish containing a damp filter paper on the bottom and ten 3rd instar caterpillars. At 5 days, observations are made of mortality, reduced feeding, or any interference with normal molting.

[2] = system: Tetranychus Urticae (OP-resistant strain), 2-spotted Spider Mite (TSM); assay: Two-spotted spider mite (TSM) plant-dip test, mortality after 2 days; details: rating scale; for pest or weed control at 300 ppm: Tetranychus urticae, 48 h, read-out: TSM AD-FOLIAR 300 (ppm)
Procedure: as §1
Tetranychus Urticae (OP-resistant strain), 2-spotted Spider Mite (TSM)
Sieva lima bean plants with primary leaves expanded to 7-8 cm are selected and cut back to one plant per pot. A small piece is cut from an infested leaf taken from the main colony and placed on each leaf of the test plants. This is done about 2 hours before treatment to allow the mites to move over to the test plant to lay eggs. The size of the cut, infested leaf is varied to obtain about 100 mites per leaf. At the time of test treatment, the piece of leaf used to transfer the mites is removed and discarded. The newly-infested plants are dipped in the test solution for 3 seconds with agitation and set in the hood to dry. After 2 days, one leaf is removed and mortality counts are made.

[3] = system: Aphis Fabae, Mixed Instar, Bean Aphid (BA); assay: Bean aphid (BA) foliar spray test, mortality after 2 days; details: rating scale; for pest or weed control at 300 ppm: Aphis fabae, 48 h, read-out: BA AD-FOLIAR 300 (ppm)
Procedure: as §1
Aphis Fabae, Mixed Instar, Bean Aphid (BA)
Pots containing single nasturtium plants (Tropaeolum sp.) about 5 cm tall are infested with about 100-200 aphids one day before the test. Each pot is sprayed with the test solution for 2 revolutions of a 4 rpm turntable in a hood. The spray is directed to give complete coverage of the plants and aphids. The sprayed pots are set on their sides on white trays and held for 2 days, following which mortality estimates are made. Essentially the same method is used with respect to cotton aphid (CA).

FC(F)(F)c1cc(Oc2nccc(-c3ccc(Cl)cc3)n2)ccc1Cl [Compound 1]
SAW 2^ND-FOLIAR 1000 (ppm) [1]: A (A 0-45% kill)

FC(F)(F)c1cccc(Oc2nccc(-c3ccc(Cl)cc3)n2)c1 [Compound 2]
TSM AD-FOLIAR 300 (ppm) [2]: C (C 76-100% kill)

O=[N+]([O-])c1ccc(Oc2nccc(-c3ccc(Cl)cc3)n2)cc1C(F)(F)F [Compound 3]
SAW 2^ND-FOLIAR 1000 (ppm) [1]: B (B 45-75% kill)

Fc1ccc(Oc2nccc(-c3ccc(Cl)cc3)n2)cc1C(F)(F)F [Compound 4]
TSM AD-FOLIAR 300 (ppm) [2]: A (A 0-45% kill)

Fc1ccc(Oc2nccc(-c3ccccc3)n2)cc1C(F)(F)F [Compound 6]
SAW 2^ND-FOLIAR 1000 (ppm) [1]: A (A 0-45% kill)

O=[N+]([O-])c1ccc(Oc2nccc(-c3ccccc3)n2)cc1C(F)(F)F [Compound 8]
SAW 2^ND-FOLIAR 1000 (ppm) [1]: A (A 0-45% kill)

O=[N+]([O-])c1ccc(-c2ccnc(Oc3cccc(C(F)(F)F)c3)n2)cc1 [Compound 9]
BA AD-FOLIAR 300 (ppm) [3]: B (B 45-75% kill)

CCc1ccc(-c2ccnc(Oc3ccc(F)c(Cl)c3)n2)cc1 [Compound 13]
BA AD-FOLIAR 300 (ppm) [3]: C (C 76-100% kill) | SAW 2^ND-FOLIAR 1000 (ppm) [1]: C (C 76-100% kill)

CCc1ccc(-c2ccnc(Oc3cccc(C(F)(F)F)c3)n2)cc1 [Compound 15]
BA AD-FOLIAR 300 (ppm) [3]: C (C 76-100% kill) | TSM AD-FOLIAR 300 (ppm) [2]: C (C 76-100% kill)

CCc1ccc(-c2ccnc(Oc3ccc(Cl)c(C(F)(F)F)c3)n2)cc1 [Compound 17]
BA AD-FOLIAR 300 (ppm) [3]: C (C 76-100% kill)

FC(F)(F)c1cccc(-c2ccnc(Oc3ccc(Cl)c(Cl)c3)n2)c1 [Compound 18]
BA AD-FOLIAR 300 (ppm) [3]: A (A 0-45% kill) | TSM AD-FOLIAR 300 (ppm) [2]: A (A 0-45% kill) | SAW 2^ND-FOLIAR 1000 (ppm) [1]: A (A 0-45% kill)

FC(F)(F)c1cccc(-c2ccnc(Oc3ccc(Cl)c(Cl)c3)n2)c1 [Compound 20]
BA AD-FOLIAR 300 (ppm) [3]: B (B 45-75% kill) | SAW 2^ND-FOLIAR 1000 (ppm) [1]: A (A 0-45% kill)

CC(C)(C)c1ccc(-c2ccnc(Oc3ccc(Cl)c(C(F)(F)F)c3)n2)cc1 [Compound 25]
BA AD-FOLIAR 300 (ppm) [3]: A (A 0-45% kill)

CC(C)(C)c1ccc(-c2ccnc(Oc3ccc([N+](=O)[O-])c(C(F)(F)F)c3)n2)cc1 [Compound 26]
BA AD-FOLIAR 300 (ppm) [3]: B (B 45-75% kill)

FC(F)(F)c1ccc(-c2ccnc(Oc3ccc(Cl)c(Cl)c3)n2)cc1 [Compound 28]
BA AD-FOLIAR 300 (ppm) [3]: A (A 0-45% kill)

Fc1ccc(Oc2nccc(-c3ccc(C(F)(F)F)cc3)n2)cc1C(F)(F)F [Compound 29]
BA AD-FOLIAR 300 (ppm) [3]: A (A 0-45% kill) | TSM AD-FOLIAR 300 (ppm) [2]: B (B 45-75% kill) | SAW 2^ND-FOLIAR 1000 (ppm) [1]: A (A 0-45% kill)

FC(F)(F)c1ccc(-c2ccnc(Oc3cccc(C(F)(F)F)c3)n2)cc1 [Compound 30]
BA AD-FOLIAR 300 (ppm) [3]: A (A 0-45% kill) | TSM AD-FOLIAR 300 (ppm) [2]: B (B 45-75% kill) | SAW 2^ND-FOLIAR 1000 (ppm) [1]: A (A 0-45% kill)

Fc1ccc(Oc2nccc(-c3ccc(C(F)(F)F)cc3)n2)cc1Cl [Compound 31]
BA AD-FOLIAR 300 (ppm) [3]: B (B 45-75% kill)

O=[N+]([O-])c1ccc(Oc2nccc(-c3ccc(C(F)(F)F)cc3)n2)cc1C(F)(F)F [Compound 33]
BA AD-FOLIAR 300 (ppm) [3]: B (B 45-75% kill)

O=[N+]([O-])c1ccc(Oc2nccc(-c3cccc(OC(F)(F)F)c3)n2)cc1C(F)(F)F [Compound 40]
SAW 2^ND-FOLIAR 1000 (ppm) [1]: A (A 0-45% kill)

FC(F)(F)Oc1cccc(-c2ccnc(Oc3cc(Cl)cc(Cl)c3)n2)c1 [Compound 41]
TSM AD-FOLIAR 300 (ppm) [2]: A (A 0-45% kill)

FC(F)(F)Oc1ccc(-c2ccnc(Oc3cc(Cl)cc(Cl)c3)n2)cc1 [Compound 44]
SAW 2^ND-FOLIAR 1000 (ppm) [1]: A (A 0-45% kill)

FC(F)(F)Oc1ccc(-c2ccnc(Oc3cc(C(F)(F)F)cc(C(F)(F)F)c3)n2)cc1 [Compound 45]
BA AD-FOLIAR 300 (ppm) [3]: C (C 76-100% kill)

FC(F)(F)Oc1ccc(-c2ccnc(Oc3ccc(Cl)c(C(F)(F)F)c3)n2)cc1 [Compound 46]
BA AD-FOLIAR 300 (ppm) [3]: B (B 45-75% kill) | SAW 2^ND-FOLIAR 1000 (ppm) [1]: B (B 45-75% kill)

O=[N+]([O-])c1ccc(Oc2nccc(-c3ccc(OC(F)(F)F)cc3)n2)cc1C(F)(F)F [Compound 49]
BA AD-FOLIAR 300 (ppm) [3]: B (B 45-75% kill) | TSM AD-FOLIAR 300 (ppm) [2]: B (B 45-75% kill)

Fc1cc(-c2ccnc(Oc3cccc(C(F)(F)F)c3)n2)cc(C(F)(F)F)c1 [Compound 52]
SAW 2^ND-FOLIAR 1000 (ppm) [1]: A (A 0-45% kill)

Fc1cc(-c2ccnc(Oc3ccc(F)c(C(F)(F)F)c3)n2)cc(C(F)(F)F)c1 [Compound 53]
BA AD-FOLIAR 300 (ppm) [3]: C (C 76-100% kill) | SAW 2^ND-FOLIAR 1000 (ppm) [1]: A (A 0-45% kill)

Fc1cc(-c2ccnc(Oc3ccc(Cl)c(Cl)c3)n2)cc(C(F)(F)F)c1 [Compound 58]
BA AD-FOLIAR 300 (ppm) [3]: C (C 76-100% kill)

Fc1cc(F)cc(-c2ccnc(Oc3cccc(C(F)(F)F)c3)n2)c1 [Compound 61]
BA AD-FOLIAR 300 (ppm) [3]: C (C 76-100% kill)

Fc1cc(F)cc(-c2ccnc(Oc3ccc(F)c(C(F)(F)F)c3)n2)c1 [Compound 62]
BA AD-FOLIAR 300 (ppm) [3]: B (B 45-75% kill) | SAW 2^ND-FOLIAR 1000 (ppm) [1]: C (C 76-100% kill)

Fc1ccc(Oc2nccc(-c3ccc(F)c(C(F)(F)F)c3)n2)cc1C(F)(F)F [Compound 70]
TSM AD-FOLIAR 300 (ppm) [2]: B (B 45-75% kill)

CCc1cnc(Oc2cccc(C(F)(F)F)c2)nc1-c1ccc(Cl)c(F)c1 [Compound 82]
pest or weed control at 1000 ppm [1]: 76 to 100%

CSc1cc(-c2cccc(C(F)(F)F)c2)nc(Oc2cccc(C(F)(F)F)c2)n1 [Compound 108]
pest or weed control at 300 ppm [3]: 45 to 75%

FC(F)(F)c1cccc(Oc2nccc(-c3cccc(C(F)(F)F)c3)n2)c1 [Compound 109]
pest or weed control at 300 ppm [3]: 45 to 75% | pest or weed control at 1000 ppm [1]: 0 to 45%

FC(F)(F)c1cccc(Oc2nc(Cl)cc(-c3cccc(C(F)(F)F)c3)n2)c1 [Compound 110]
pest or weed control at 1000 ppm [1]: 76 to 100%

CN(C)c1cc(-c2cccc(C(F)(F)F)c2)nc(Oc2cccc(C(F)(F)F)c2)n1 [Compound 111]
pest or weed control at 300 ppm [3]: 76 to 100%

Fc1ccc(Oc2nccc(-c3cccc(C(F)(F)F)c3)n2)cc1C(F)(F)F [Compound 112]
pest or weed control at 1000 ppm [1]: 0 to 45%

Fc1ccc(Oc2nccc(-c3ccc(Cl)cc3)n2)cc1C(F)(F)F [Compound 115]
pest or weed control at 300 ppm [2]: 45 to 75% | pest or weed control at 1000 ppm [1]: 0 to 45%

FC(F)(F)c1cccc(Oc2nccc(-c3ccc(Cl)cc3)n2)c1 [Compound 116]
pest or weed control at 300 ppm [2]: 45 to 75% | pest or weed control at 1000 ppm [1]: 0 to 45%

CSc1cc(-c2ccc(Cl)cc2)nc(Oc2cccc(Cl)c2)n1 [Compound 119]
pest or weed control at 1000 ppm [1]: 45 to 75%

FC(F)(F)c1cc(Oc2nccc(-c3ccc(Cl)cc3)n2)ccc1Cl [Compound 122]
pest or weed control at 1000 ppm [1]: 45 to 75%

FC(F)(F)c1cccc(Oc2nccc(-c3ccccc3)n2)c1 [Compound 128]
pest or weed control at 300 ppm [3]: 45 to 75% | pest or weed control at 300 ppm [2]: 76 to 100%

Fc1ccc(Oc2nccc(-c3ccccc3)n2)cc1C(F)(F)F [Compound 130]
pest or weed control at 300 ppm [3]: 0 to 45%

Fc1ccc(-c2ccnc(Oc3cccc(C(F)(F)F)c3)n2)cc1 [Compound 136]
pest or weed control at 300 ppm [2]: 0 to 45% | pest or weed control at 1000 ppm [1]: 0 to 45%

Fc1cccc(Oc2nccc(-c3ccc(Cl)cc3)n2)c1 [Compound 137]
pest or weed control at 300 ppm [3]: 76 to 100%

O=[N+]([O-])c1cccc(Oc2nccc(-c3ccc(Cl)cc3)n2)c1 [Compound 140]
pest or weed control at 300 ppm [3]: 0 to 45% | pest or weed control at 300 ppm [2]: 45 to 75%

N#Cc1cccc(Oc2nccc(-c3ccc(Cl)cc3)n2)c1 [Compound 141]
pest or weed control at 300 ppm [3]: 45 to 75%

Fc1cccc(Oc2nccc(-c3ccc(Cl)cc3)n2)c1 [Compound 142]
pest or weed control at 300 ppm [2]: 76 to 100%

COc1cccc(Oc2nccc(-c3ccc(Cl)cc3)n2)c1 [Compound 143]
pest or weed control at 300 ppm [3]: 76 to 100%

Cc1ccc(-c2ccnc(Oc3cccc(C(F)(F)F)c3)n2)cc1 [Compound 147]
pest or weed control at 300 ppm [3]: 76 to 100% | pest or weed control at 300 ppm [2]: 76 to 100%

Fc1ccc(Oc2nccc(-c3ccc(Cl)cc3)n2)cc1Cl [Compound 150]
pest or weed control at 300 ppm [3]: 45 to 75% | pest or weed control at 300 ppm [2]: 76 to 100%

Clc1ccc(-c2ccnc(Oc3ccc(Cl)c(Cl)c3)n2)cc1 [Compound 151]
pest or weed control at 300 ppm [3]: 45 to 75%

COc1ccc(-c2ccnc(Oc3ccc(F)c(C(F)(F)F)c3)n2)cc1 [Compound 153]
pest or weed control at 300 ppm [3]: 45 to 75%

FC(F)(F)c1cccc(Oc2nccc(-c3ccc(Cl)c(Cl)c3)n2)c1 [Compound 154]
pest or weed control at 300 ppm [3]: 45 to 75%

Fc1ccc(Oc2nccc(-c3ccc(Cl)c(Cl)c3)n2)cc1C(F)(F)F [Compound 155]
pest or weed control at 300 ppm [3]: 76 to 100% | pest or weed control at 1000 ppm [1]: 0 to 45%

CCCc1cnc(Oc2cccc(C(F)(F)F)c2)nc1-c1cccc(C(F)(F)F)c1 [Compound 159]
pest or weed control at 300 ppm [2]: 45 to 75% | pest or weed control at 1000 ppm [1]: 0 to 45%

FC(F)(F)c1cccc(Oc2nccc(-c3ccc(Br)cc3)n2)c1 [Compound 161]
pest or weed control at 300 ppm [3]: 76 to 100% | pest or weed control at 1000 ppm [1]: 0 to 45%

Fc1ccc(Oc2nccc(-c3ccc(Br)cc3)n2)cc1C(F)(F)F [Compound 162]
pest or weed control at 1000 ppm [1]: 0 to 45%
